≈ marks a conversion by molar mass, not a printed value.
experiment: solubility of the first organic compound in water

| solubility [µg/mL] | Structure (SMILES) |
| --- | --- |
| 230 to 390 (≈ 389 to 660 µM) | c1ccc2c(c1)-c1ccccc1C21c2cc(N3CCCN4CCCN=C43)ccc2-c2ccc(N3CCCN4CCCN=C43)cc21 [2,7hpp2SF, 1,1′-(9,9′-spirobi[9H-fluorene]-2,7-diyl)bis(1,3,4,6,7,8-hexahydro-2H-pyrimido[1,2-a]pyrimidine)] |
| 18 to 22 (≈ 39.7 to 48.5 µM) | c1ccc2c(c1)-c1ccccc1C21c2ccccc2-c2ccc(N3CCCN4CCCN=C43)cc21 [2hppSF, 1-(9,9′-spirobi[9H-fluoren]-2-yl)-1,3,4,6,7,8-hexahydro-2H-pyrimido[1,2-a]pyrimidine] |
| < 2.3 | CC(C)(C)c1ccc2c(c1)C1(c3ccccc3-c3ccc(N4CCCN5CCCN=C54)cc31)c1cc(C(C)(C)C)ccc1-2 [2′,7′tBu-2hppSF, 1-(2′,7′-di-tert-butyl-9,9′-spirobi[9H-fluoren]-2-yl)-1,3,4,6,7,8-hexahydro-2H-pyrimido[1,2-a]pyrimidine] |
